Test results from US20230138851A1, “NOVEL ALKYNE DERIVATIVES” (CARNA BIOSCIENCES, INC., priority 2020, published 2023).

Key:
Format in all cases: biochemical
DYRK1B = molecular target: T1, DYRK1B (Homo sapiens, UniProt Q9Y463); assay: Inhibition test on activity of DYRK family, mobility shift assay (MSA), DYRK1B; parameters: Inhibitory Activity 1b (IC50 against DYRK1B): scale not given here; settings: ATP 200 μM, FITC-labeled DYRKtide peptide substrate, room temperature 1 hour; for IC50: read-out: Inhibitory Activity 1b (IC50 against DYRK1B)
T1 construct: purchased Carna Biosciences, Inc. 04-131
T1 sequence (Q9Y463 whole entry): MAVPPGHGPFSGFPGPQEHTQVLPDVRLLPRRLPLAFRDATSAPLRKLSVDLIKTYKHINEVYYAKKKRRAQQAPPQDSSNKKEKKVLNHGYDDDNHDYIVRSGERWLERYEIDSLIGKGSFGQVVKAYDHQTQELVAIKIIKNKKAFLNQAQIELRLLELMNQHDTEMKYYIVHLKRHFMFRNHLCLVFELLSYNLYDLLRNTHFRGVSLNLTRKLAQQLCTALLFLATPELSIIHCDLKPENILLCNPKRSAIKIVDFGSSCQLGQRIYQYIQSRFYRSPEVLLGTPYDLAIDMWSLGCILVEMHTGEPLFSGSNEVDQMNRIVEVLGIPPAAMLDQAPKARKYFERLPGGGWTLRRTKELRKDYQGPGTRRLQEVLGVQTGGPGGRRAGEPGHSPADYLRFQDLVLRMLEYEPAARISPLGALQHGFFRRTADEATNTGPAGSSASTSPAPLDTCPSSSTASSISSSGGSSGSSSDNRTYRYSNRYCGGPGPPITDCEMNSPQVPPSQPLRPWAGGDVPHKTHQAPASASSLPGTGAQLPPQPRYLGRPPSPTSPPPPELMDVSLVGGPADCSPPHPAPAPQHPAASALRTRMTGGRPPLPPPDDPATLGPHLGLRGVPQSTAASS
Protocol: [Inhibition Test on Activity of DYRK Family (DYRK1A, DYRK1B, DYRK2, and […])]
(Method for Measuring Kinase Activity)
The kinase activity was measured by mobility shift assay (MSA) method using QuickScout Screening Assist™ MSA (commercially available kit manufactured by Carna Biosciences, Inc.). The substrate of the kinase reaction used was an FITC-labeled DYRKtide peptide included in the kit. An assay buffer [20 mM HEPES, 0.01% Triton X-100™, 2 mM dithiothreitol, pH 7.5] was used to create a substrate mixture solution with a substrate (4 μM), MgCl2 (20 mM), and ATP (DYRK1A: 100 μM; DYRK1B: 200 μM; DYRK2: 40 μM; and DYRK3: 20 μM). In addition, kinases (DYRK1A: manufactured by Carna Biosciences, Inc., Cat. No. 04-130; DYRK1B: manufactured by Carna Biosciences, Inc., Cat. No. 04-131; DYRK2; manufactured by Carna Biosciences, Inc., Cat. No. 04-132; and DYRK3; manufactured by Carna Biosciences, Inc., Cat. No. 04-133) were diluted with the assay buffer to prepare enzyme solutions (DYRK1A: 0.2 ng/μL; DYRK1B: 0.08 ng/μL; DYRK2: 0.04 ng/μL; and DYRK3: 0.25 ng/μL). The 10 mM solution of the test compound in DMSO was further diluted with DMSO to 10 levels of the concentration (0.00003 mM, 0.0001 mM, 0.0003 mM, 0.001 mM, 0.003 mM, 0.01 mM, 0.03 mM, 0.1 mM, 0.3 mM, and 1 mM), each of which was subjected to 25-fold dilution with the assay buffer to obtain a drug solution (4% DMSO solution). 5 μL of the drug solution or a control solution (4% DMSO-assay buffer), 5 μL of the substrate mixture solution, and 10 μL of the enzyme solution were mixed in the wells of a polypropylene 384-well plate and allowed to react at room temperature for 1 hour, and then the reaction was quenched by adding 60 μL of the termination buffer included in the kit. Subsequently, the quantities of the substrates (S) and the phosphorylated substrate (P) in the reaction solution were measured using LabChip EZ Reader II system (manufactured by Caliper Life Sciences) according to the protocol of the assay kit.
(Method for Evaluating Inhibitory Activity)
The heights of the peaks of the “substrate” and the “phosphorylated substrate” were expressed as S and P, respectively, and a blank containing the assay buffer instead of the enzyme solution was also measured.
The inhibition rate (%) of the test compound was calculated according to the following equation:
Inhibition rate (%)=(1−(C−A)/(B−A))×100
wherein, A, B, and C represent P/(P+S) of the blank well, P/(P+S) of the control solution well, and P/(P+S) of the compound-containing well, respectively.
The IC50 value was calculated via a regression analysis of the inhibition rate and the test compound concentration (logarithmic value).
The inhibiting activities of representative compounds of the present invention are shown against DYRK1A, DYRK1B, DYRK2, and DYRK3 in Tables 7 and 8. The kinase activity inhibitory effect was indicated with the mark *** at an IC50 value of less than 0.01 μM; the mark ** at 0.01 μM or more and less than 0.1 μM; the mark * at 0.1 μM or more and less than 1 μM; and the mark — at 1 μM or more (N.D. indicates not measured).

DYRK3 = molecular target: T2, DYRK3 (Homo sapiens, UniProt O43781); assay: Inhibition test on activity of DYRK family, mobility shift assay (MSA), DYRK3; settings: ATP 20 μM, FITC-labeled DYRKtide peptide substrate, room temperature 1 hour; for IC50: read-out: Inhibitory Activity 3 (IC50 against DYRK3)
T2 construct: purchased Carna Biosciences, Inc. 04-133
T2 sequence (O43781 1-588): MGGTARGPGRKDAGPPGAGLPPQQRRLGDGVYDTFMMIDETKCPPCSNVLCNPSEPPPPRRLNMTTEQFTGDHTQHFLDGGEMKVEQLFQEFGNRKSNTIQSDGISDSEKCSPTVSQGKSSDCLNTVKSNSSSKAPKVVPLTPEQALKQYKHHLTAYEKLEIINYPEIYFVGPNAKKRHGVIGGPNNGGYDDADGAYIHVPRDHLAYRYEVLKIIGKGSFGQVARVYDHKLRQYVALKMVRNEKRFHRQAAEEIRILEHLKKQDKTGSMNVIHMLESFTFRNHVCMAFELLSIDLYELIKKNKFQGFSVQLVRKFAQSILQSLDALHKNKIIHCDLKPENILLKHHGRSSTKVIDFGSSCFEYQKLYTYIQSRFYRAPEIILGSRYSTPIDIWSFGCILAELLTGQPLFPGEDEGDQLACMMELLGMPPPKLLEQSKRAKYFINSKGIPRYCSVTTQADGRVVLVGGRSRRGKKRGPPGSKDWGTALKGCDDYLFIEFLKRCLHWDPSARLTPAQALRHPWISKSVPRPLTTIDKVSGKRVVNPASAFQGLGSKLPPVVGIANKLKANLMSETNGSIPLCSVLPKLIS
Procedure, shortened: (§1)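 FITC-DYRKtide phosphorylation in 20 mM HEPES pH 7.5 with MgCl2; ATP in the substrate mix was 100 μM (DYRK1A), 200 μM (DYRK1B), 40 μM (DYRK2) or 20 μM (DYRK3). Reactions ran 1 h at room temperature; inhibition from P/(P+S) versus blank and DMSO control, IC50 by regression on log concentration.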

DYRK1A = molecular target: T3, DYRK1A (Homo sapiens, UniProt Q13627); assay: Inhibition test on activity of DYRK family, mobility shift assay (MSA), DYRK1A; settings: ATP 100 μM, FITC-labeled DYRKtide peptide substrate, room temperature 1 hour; for IC50: read-out: Inhibitory Activity 1a (IC50 against DYRK1A)
T3 construct: purchased Carna Biosciences, Inc. 04-130
Procedure, shortened: as §1

DYRK2 = molecular target: T4, DYRK2 (Homo sapiens, UniProt Q92630); assay: Inhibition test on activity of DYRK family, mobility shift assay (MSA), DYRK2; settings: ATP 40 μM, FITC-labeled DYRKtide peptide substrate, room temperature 1 hour; for IC50: read-out: Inhibitory Activity 2 (IC50 against DYRK2)
T4 construct: purchased Carna Biosciences, Inc. 04-132
T4 sequence (Q92630 1-601): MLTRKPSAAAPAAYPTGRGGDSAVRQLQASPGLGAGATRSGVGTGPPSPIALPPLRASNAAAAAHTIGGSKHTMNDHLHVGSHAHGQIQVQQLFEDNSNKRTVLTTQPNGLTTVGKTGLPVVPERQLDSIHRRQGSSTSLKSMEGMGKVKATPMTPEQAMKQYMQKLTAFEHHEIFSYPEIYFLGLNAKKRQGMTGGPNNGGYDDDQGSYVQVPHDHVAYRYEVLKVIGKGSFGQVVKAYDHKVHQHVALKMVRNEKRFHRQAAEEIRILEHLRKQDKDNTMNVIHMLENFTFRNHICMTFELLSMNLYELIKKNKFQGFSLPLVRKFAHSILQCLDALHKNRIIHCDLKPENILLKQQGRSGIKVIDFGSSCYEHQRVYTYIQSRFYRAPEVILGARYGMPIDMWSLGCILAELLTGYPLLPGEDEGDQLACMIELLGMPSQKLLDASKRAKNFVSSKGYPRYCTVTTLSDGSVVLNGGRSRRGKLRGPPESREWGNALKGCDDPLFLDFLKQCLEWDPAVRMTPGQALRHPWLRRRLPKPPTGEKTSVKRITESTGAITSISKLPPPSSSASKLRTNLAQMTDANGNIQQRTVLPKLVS
Procedure, shortened: as §1

Row | SMILES | Inhibitory Activity 1b (IC50 against DYRK1B) (DYRK1B) | IC50 (DYRK3) | Inhibitory Activity 1a (IC50 against DYRK1A) (DYRK1A) | IC50 (DYRK2) | IC50 (DYRK1B) | IC50 (DYRK1A) | Inhibitory Activity 3 (IC50 against DYRK3) (DYRK3) | Inhibitory Activity 2 (IC50 against DYRK2) (DYRK2)
1 | CC#CC1CNC(=O)N1c1nc2c(ccc3ncn(CCOC)c32)s1 (racemic) [Example 33, (RS)-1-[8-(2-methoxyethyl)-8H-imidazo[4′,5′:5,6]benz[1,2-d]thiazol-2-yl]-5-(prop-1-yn-1-yl)imidazolidin-2-one] | * * | 100 to 1000 nM | * * | 100 to 1000 nM | – | – | – | –
2 | CC#CC1CNC(=O)N1c1nc2c(ccc3nnn(C)c32)s1 (single isomer, unassigned) [Example 29, 1-(1-methyl-1H-thiazolo[4′,5′:3,4]benz[1,2-d][1,2,3]triazol-7-yl)-5-(prop-1-yn-1-yl)imidazolidin-2-one] | – | ≥ 1000 nM | – | ≥ 1000 nM | 100 to 1000 nM | 100 to 1000 nM | – | –
3 | CC#C[C@H]1CNC(=O)N1c1nc2c3c(ccc2s1)OCO3 [Example 3, (S)-1-([1,3]dioxolo[4′,5′:5,6]benzo[1,2-d]thiazol-7-yl)-5-(1-propyn-1-yl)imidazolidin-2-one] | * * | ≥ 1000 nM | * * | ≥ 1000 nM | – | – | – | –

More lines, now with the values ahead:

Row | Inhibitory Activity 1b (IC50 against DYRK1B) (DYRK1B) | IC50 (DYRK3) | Inhibitory Activity 1a (IC50 against DYRK1A) (DYRK1A) | IC50 (DYRK2) | IC50 (DYRK1B) | IC50 (DYRK1A) | Inhibitory Activity 3 (IC50 against DYRK3) (DYRK3) | Inhibitory Activity 2 (IC50 against DYRK2) (DYRK2) | SMILES
4 | * * * | 100 to 1000 nM | * * * | 100 to 1000 nM | – | – | – | – | CC#CC1CNC(=O)N1c1nc2c3c(ccc2s1)OCCN3 (racemic) [Example 38, (RS)-1-(8,9-dihydro-7H-thiazolo[4′,5′:3,4]benz[1,2-b][1,4]oxazin-2-yl)-5-(prop-1-yn-1-yl)imidazolidin-2-one]
5 | – | ≥ 1000 nM | – | ≥ 1000 nM | ≥ 1000 nM | 100 to 1000 nM | – | – | CC#CC1CNC(=O)N1c1nc2c3c(ccc2s1)OCCN3C(C)=O (racemic) [Example 39, (RS)-1-(9-acetyl-8,9-dihydro-7H-thiazolo[4′,5′:3,4]benz[1,2-b][1,4]oxazin-2-yl)-5-(prop-1-yn-1-yl)imidazolidin-2-one]
6 | * * * | 100 to 1000 nM | * * * | 100 to 1000 nM | – | – | – | – | CC#CC1CNC(=O)N1c1nc2c(ccc3nnn(C)c32)s1 (single isomer, unassigned) [Example 30, 1-(1-methyl-1H-thiazolo[4′,5′:3,4]benz[1,2-d][1,2,3]triazol-7-yl)-5-(prop-1-yn-1-yl)imidazolidin-2-one]
7 | * * * | – | * * * | – | – | – | * * | * * | CC#C[C@@H]1CNC(=O)N1c1nc2c3c(ccc2s1)OCO3 [Example 2, (R)-1-([1,3]dioxolo[4′,5′:5,6]benzo[1,2-d]thiazol-7-yl)-5-(1-propyn-1-yl)imidazolidin-2-one]
8 | * * * | 100 to 1000 nM | * * * | 100 to 1000 nM | – | – | – | – | CC#C[C@@H]1[C@H](C)NC(=O)N1c1nc2c3c(ccc2s1)OCC3 [Example 5, (4S,5R)-1-(7,8-dihydrobenzofuro[4,5-d]thiazol-2-yl)-4-methyl-5-(prop-1-yn-1-yl)imidazolidin-2-one]
